Source: ChEMBL document CHEMBL1147970, “Enzymatic synthesis of arbutin undecylenic acid ester and its inhibitory effect on melanin synthesis” (2007)
The source made the active and inactive calls. The calls are words filed in the database; no cut-off is given here.

Tested on: B16
Assay: Antimelanogenic activity in mouse B16 cells at 0.1 mM after 6 days relative to control
Format: functional

Compound	Activity
C=CCCCCCCCCC(=O)OC[C@H]1O[C@@H](Oc2ccc(O)cc2)[C@H](O)[C@@H](O)[C@@H]1O	30%
OC[C@H]1O[C@@H](Oc2ccc(O)cc2)[C@H](O)[C@@H](O)[C@@H]1O	inactive
